IC50 data for 30 molecules are collected here from US11345681B1, “Inhibitors of fibroblast growth factor receptor kinases” (Kinnate Biopharma Inc., priority 2020, dated 2022).

SMILES strings stand for the structures. pIC50: −log10 of the molar value.

The target in this assay is Wild type FGFR2 (Homo sapiens (Human), UniProt P21802). The assay can be described thus: FGFR2 kinase assay (fluorescence-based microfluidic mobility shift assay). The conditions noted are these: wild type FGFR2 0.06 nM, 100 μM ATP, 80 minutes at room temperature. The class given is biochemical.
Sequence of Wild type FGFR2 (P21802 22-821): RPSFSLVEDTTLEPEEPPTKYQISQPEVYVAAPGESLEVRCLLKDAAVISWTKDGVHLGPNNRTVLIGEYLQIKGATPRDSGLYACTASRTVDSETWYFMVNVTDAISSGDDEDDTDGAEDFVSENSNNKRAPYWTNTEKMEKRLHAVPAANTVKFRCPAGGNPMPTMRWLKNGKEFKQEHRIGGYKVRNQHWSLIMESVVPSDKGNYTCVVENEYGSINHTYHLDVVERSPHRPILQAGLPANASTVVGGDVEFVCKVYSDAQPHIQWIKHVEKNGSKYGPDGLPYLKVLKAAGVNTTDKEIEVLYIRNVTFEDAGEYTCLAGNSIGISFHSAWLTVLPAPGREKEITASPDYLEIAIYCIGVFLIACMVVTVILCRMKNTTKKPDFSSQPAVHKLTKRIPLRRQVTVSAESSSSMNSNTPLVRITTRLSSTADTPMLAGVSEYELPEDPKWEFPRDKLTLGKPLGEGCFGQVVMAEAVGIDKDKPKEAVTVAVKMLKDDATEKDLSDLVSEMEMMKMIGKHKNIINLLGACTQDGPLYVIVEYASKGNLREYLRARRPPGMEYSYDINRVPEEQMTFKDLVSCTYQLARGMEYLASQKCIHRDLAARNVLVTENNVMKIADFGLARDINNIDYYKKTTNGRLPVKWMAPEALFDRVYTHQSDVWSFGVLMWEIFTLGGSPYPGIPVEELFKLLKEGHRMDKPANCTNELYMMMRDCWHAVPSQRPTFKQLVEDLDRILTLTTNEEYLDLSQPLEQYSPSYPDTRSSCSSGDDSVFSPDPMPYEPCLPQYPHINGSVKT

One may read the pIC50 as the IC50 on a negative log10 scale, so that one unit is a factor of ten. As for `C=CC(=O)N1C[C@@H](n2nc(C#Cc3cc4ncn([C@@H]5CC5(F)F)c4cc3Cl)c(C(N)=O)c2NC)C[C@@H]1COC` (single isomer, unassigned) [Example 279], the pIC50 (class symbols) is at least 7.00.

With `C=CC(=O)N1C[C@@H](n2nc(C#Cc3cc4ncn([C@H]5CC5(F)F)c4cc3Cl)c(C(N)=O)c2NC)C[C@@H]1COC` (single isomer, unassigned) [Example 280], the pIC50 (class symbols) is at least 7.00.

As for `C=CC(=O)N1C[C@@H](n2nc(C#Cc3cc4c(cc3Cl)ncn4[C@@H]3CC3(F)F)c(C(N)=O)c2NC)C[C@@H]1COC` (single isomer, unassigned) [Example 288], the pIC50 (class symbols) was at least 7.00.

With `C=CC(=O)N1C[C@@H](n2nc(C#Cc3cc4c(cc3Cl)ncn4[C@H]3CC3(F)F)c(C(N)=O)c2NC)C[C@@H]1COC` (single isomer, unassigned) [Example 289], the negative logarithm of the IC50 (pIC50) (given as numeric bound) is below 6.30.

In the case of `C=CC(=O)N1C[C@@H](n2nc(C#Cc3ccc4cnoc4c3)c(C(N)=O)c2NC)CC1COC` (stereo in doubt) [Example 26, 1-((3S,5S)-1-acryloyl-5-(methoxymethyl)pyrrolidin-3-yl)-3-(benzo[d]isoxazol-6-ylethynyl)-5-(methylamino)-1H-pyrazole-4-carboxamide], the pIC50 (class symbols) was 6.00 to 7.00.

In the case of `C=CC(=O)N1C[C@@H](n2nc(C#Cc3c(F)cc4c(ncn4CC(F)(F)F)c3F)c(C(N)=O)c2NC)CC1COC` (stereo in doubt) [Example 34, 1-((3S,5S)-1-acryloyl-5-(methoxymethyl)pyrrolidin-3-yl)-3-((4,6-difluoro-1-(2,2,2-trifluoroethyl)-1H-benzo[d]imidazol-5-yl)ethynyl)-5-(methylamino)-1H-pyrazole-4-carboxamide], the negative-log IC50 (pIC50) (class symbols) is at least 7.00.

Turning to `C=CC(=O)N1C[C@@H](n2nc(C#Cc3c(F)cc4c(ncn4C4CC4)c3F)c(C(N)=O)c2NC)CC1C` (stereo in doubt) [Example 159, 3-[2-(1-Cyclopropyl-4,6-difluoro-1,3-benzodiazol-5-yl)ethynyl]-1-[(3S,5R)-5-methyl-1-(prop-2-enoyl)pyrrolidin-3-yl]-5-(methylamino)pyrazole-4-carboxamide], under “class symbols”, the pIC50 was at least 7.00.

For `C#CC(=O)N1CC[C@H](n2nc(C#Cc3cc4ncn(C5CC5)c4cc3F)c(C(N)=O)c2NC)C1` (stereo in doubt) [Example 188, 3-[2-(1-Cyclopropyl-6-fluoro-1,3-benzodiazol-5-yl)ethynyl]-5 (methylamino)-1-[1-(prop-2-ynoyl)pyrrolidin-3-yl]pyrazole-4-carboxamide], for the setting “class symbols”, the negative-log IC50 (pIC50) is at least 7.00.

`C=CC(=O)N1CC[C@H](n2nc(C#Cc3ccc4nc(C)[nH]c4c3)c(C(N)=O)c2NC)C1` [Example 2, (S)-1-(1-acryloylpyrrolidin-3-yl)-3-((2-methyl-1H-benzo[d]imidazol-6-yl)ethynyl)-5-(methylamino)-1H-pyrazole-4-carboxamide]: the negative-log IC50 (pIC50) (class symbols) was at least 7.00.

Turning to `C=CC(=O)N1C[C@@H](n2nc(C#Cc3ccc4c(c3)nc(C)n4CC)c(C(N)=O)c2NC)C[C@@H]1COC` [Example 3, 3-[2-(1-ethyl-2-methyl-1,3-benzodiazol-5-yl)ethynyl]-1-[(3S,5R)-5-(methoxymethyl)-1-(prop-2-enoyl)pyrrolidin-3-yl]-5-(methylamino)pyrazole-4-carboxamide], for the setting “class symbols”, the negative logarithm of the IC50 (pIC50) was at least 7.00.

With `C=CC(=O)N1C[C@@H](n2nc(C#Cc3ccc4c(cnn4C)c3)c(C(N)=O)c2NC)C[C@@H]1COC` [Example 8], for the setting “class symbols”, the pIC50 is at least 7.00.

On to `C=CC(=O)N1C[C@@H](n2nc(C#Cc3ccc4nn(C)cc4c3)c(C(N)=O)c2NC)C[C@@H]1COC` [Example 9, 1-((3S,5R)-1-acryloyl-5-(methoxymethyl)pyrrolidin-3-yl)-3-((2-methyl-2H-indazol-5-yl)ethynyl)-5-(methylamino)-1H-pyrazole-4-carboxamide], for which the pIC50 (class symbols) was 6.00 to 7.00.

As to `C=CC(=O)N1C[C@@H](n2nc(C#Cc3ccc4c(c3)nc(C(F)(F)F)n4C)c(C(N)=O)c2NC)C[C@@H]1COC` [Example 10], under “class symbols”, the negative-log IC50 (pIC50) was at least 7.00.

Consider `C=CC(=O)N1C[C@@H](n2nc(C#Cc3c(F)cc4c(ncn4C)c3F)c(C(N)=O)c2NC)C[C@@H]1COC` [Example 11], for which the pIC50 (class symbols) was at least 7.00.

Turning to `C=CC(=O)N1C[C@@H](n2nc(C#Cc3ccc4c(cnn4CC)c3)c(C(N)=O)c2NC)C[C@@H]1COC` [Example 14], the pIC50 (class symbols) is at least 7.00.

As for `C=CC(=O)N1C[C@@H](n2nc(C#Cc3ccc4nn(CC)cc4c3)c(C(N)=O)c2NC)C[C@@H]1COC` [Example 15, 1-((3S,5R)-1-acryloyl-5-(methoxymethyl)pyrrolidin-3-yl)-3-((2-ethyl-2H-indazol-5-yl)ethynyl)-5-(methylamino)-1H-pyrazole-4-carboxamide], under “class symbols”, the pIC50 was at least 7.00.

As to `C=CC(=O)N1C[C@@H](n2nc(C#Cc3c(F)cc4c(nc(C)n4CC)c3F)c(C(N)=O)c2NC)C[C@@H]1COC` [Example 16, 1-((3S,5R)-1-acryloyl-5-(methoxymethyl)pyrrolidin-3-yl)-3-((1-ethyl-4,6-difluoro-2-methyl-1H-benzo[d]imidazol-5-yl)ethynyl)-5-(methylamino)-1H-pyrazole-4-carboxamide], the negative logarithm of the IC50 (pIC50) (class symbols) was at least 7.00.

Take `C=CC(=O)N1C[C@@H](n2nc(C#Cc3c(F)cc4[nH]c(C)nc4c3F)c(C(N)=O)c2NC)C[C@@H]1COC` [Example 17]: the negative logarithm of the IC50 (pIC50) (class symbols) was at least 7.00.

For `C=CC(=O)N1C[C@@H](n2nc(C#Cc3c(F)cc4c(nc(C)n4C)c3F)c(C(N)=O)c2NC)C[C@@H]1COC` [Example 18, 1-((3S,5R)-1-acryloyl-5-(methoxymethyl)pyrrolidin-3-yl)-3-((4,6-difluoro-1,2-dimethyl-1H-benzo[d]imidazol-5-yl)ethynyl)-5-(methylamino)-1H-pyrazole-4-carboxamide], the pIC50 (class symbols) was at least 7.00.

On to `C=CC(=O)N1C[C@@H](n2nc(C#Cc3c(F)cc4c(cnn4C)c3F)c(C(N)=O)c2NC)C[C@@H]1COC` [Example 19, 1-((3S,5R)-1-acryloyl-5-(methoxymethyl)pyrrolidin-3-yl)-3-((4,6-difluoro-1-methyl-1H-indazo1-5-yl)ethynyl)-5-(methylamino)-1H-1-pyrazole-4-carboxamide], for which the negative logarithm of the IC50 (pIC50) (class symbols) is at least 7.00.

`C=CC(=O)N1C[C@@H](n2nc(C#Cc3ccc4c(nc(C)n4C)c3F)c(C(N)=O)c2NC)C[C@@H]1COC` [Example 20, 1-((3S,5R)-1-acryloyl-5-(pethoxymethyl)pyrrolidin-3-yl)-3-((4-fluoro-1,2-dimethyl-1H-benzo[d]imidazol-5-yl)ethynyl)-5-(methylamino)-1H-pyrazole-4-carboxamide]: the negative-log IC50 (pIC50) (class symbols) was at least 7.00.

Regarding `C=CC(=O)N1C[C@@H](n2nc(C#Cc3ccc4c(nc(C)n4CC)c3F)c(C(N)=O)c2NC)C[C@@H]1COC` [Example 21, 1-((3S,5R)-1-acryloyl-5-(methoxymethyl)pyrrolidin-3-yl)-3-((1-ethyl-4-fluoro-2-methyl-1H-benzo[d]imidazol-5-yl)ethynyl)-5-(methylamino)-1H-pyrazole-4-carboxamide], the pIC50 (class symbols) was at least 7.00.

As for `C=CC(=O)N1C[C@@H](n2nc(C#Cc3cnc4c(c3)nc(C)n4CC)c(C(N)=O)c2NC)C[C@@H]1COC` [Example 22, 1-((3S,5R)-1-acryloyl-5-(methoxymethyl)pyrrolidin-3-yl)-3-((3-ethyl-2-methyl-3H-imidazo[4,5-b]pyridin-6-yl)ethynyl)-5-(methylamino)-1H-pyrazole-4-carboxamide], for the setting “class symbols”, the negative logarithm of the IC50 (pIC50) is at least 7.00.

`C=CC(=O)N1C[C@@H](n2nc(C#Cc3cnc4c(c3)ncn4C)c(C(N)=O)c2NC)C[C@@H]1COC` [Example 23, 1-((3S,5R)-1-acryloyl-5-(methoxymethyl)pyrrolidin-3-yl)-3-((3-methyl-3H-imidazo[4,5-b]pyridin-6-yl)ethynyl)-5-(methylamino)-1H-pyrazole—4-carboxamide]: the negative logarithm of the IC50 (pIC50) (class symbols) is at least 7.00.

As to `C=CC(=O)N1C[C@@H](n2nc(C#Cc3cc4nc(C)n(CC)c4cc3C#N)c(C(N)=O)c2NC)C[C@@H]1COC` [Example 24, 1-((3S,5R)-1-acryloyl-5-(methoxymethyl)pyrrolidin-3-yl)-3-((6-cyano-1-ethyl-2-methyl-1H-benzo[d]imidazol-5-yl)ethynyl)-5-(methylamino)-1H-pyrazole-4-carboxamide], under “class symbols”, the pIC50 is 6.00 to 7.00.

Turning to `C=CC(=O)N1C[C@@H](n2nc(C#Cc3ccc4c(c3)nc(C3CC3)n4CC)c(C(N)=O)c2NC)C[C@@H]1COC` [Example 25, 1-((3S,5R)-1-acryloyl-5-(methoxymethyl)pyrrolidin-3-yl)-3-((2-cyclopropyl-1-ethyl-1H-benzo[d]imidazol-5-yl)ethynyl)-5-(methylamino)-1H-pyrazole-4-carboxamide], the pIC50 (class symbols) is at least 7.00.

Turning to `C=CC(=O)N1C[C@@H](n2nc(C#Cc3ccc4c(c3)nc(C(F)(F)F)n4CC)c(C(N)=O)c2NC)C[C@@H]1COC` [Example 27, 1-((3S,5R)-1-acryloyl-5-(methoxymethyl)pyrrolidin-3-yl)-3-((1-ethyl-2-(trifluoromethyl)-1H-benzo[d]imidazol-5-yl)ethynyl)-5-(methylamino)-1H-pyrazole-4-carboxamide], where the note is “class symbols”, the negative logarithm of the IC50 (pIC50) is at least 7.00.

With `C=CC(=O)N1C[C@@H](n2nc(C#Cc3cc4nc(C)n(C)c4cc3F)c(C(N)=O)c2NC)C[C@@H]1COC` [Example 28, 1-((3S,5R)-1-acryloyl-5-(methoxymethyl)pyrrolidin-3-yl)-3-((6-fluoro-1,2-dimethyl-1H-benzo[d]imidazol-5-yl)ethynyl)-5-(methylamino)-1H-pyrazole-4-carboxamide], for the setting “class symbols”, the negative logarithm of the IC50 (pIC50) is at least 7.00.

In the case of `C=CC(=O)N1C[C@@H](n2nc(C#Cc3c(F)cc4c(ncn4CC)c3F)c(C(N)=O)c2NC)C[C@@H]1COC` [Example 29, 1-((3S,5R)-1-acryloyl-5-(methoxymethyl)pyrrolidin-3-yl)-3-((1-ethyl-4,6-difluoro-1H-benzo[d]imidazol-5-yl)ethynyl)-5-(methylamino)-1H-pyrazole-4-carboxamide], the negative logarithm of the IC50 (pIC50) (class symbols) is at least 7.00.

As for `C=CC(=O)N1C[C@@H](n2nc(C#Cc3c(F)cc4c(ncn4C(F)F)c3F)c(C(N)=O)c2NC)C[C@@H]1COC` [Example 30, 1-((3S,5R)-1-acryloyl-5-(methoxymethyl)pyrrolidin-3-yl)-3-((1-(difluoromethyl)-4,6-difluoro-1H-benzo[d]imidazol-5-yl)ethynyl)-5-(methylamino)-1H-pyrazole-4-carboxamide], the negative logarithm of the IC50 (pIC50) (class symbols) is at least 7.00.
